Values of other authors, collected in publication PMC9329312, “Decoding kinase-adverse event associations for small molecule kinase inhibitors” (Nature Communications, 2022).

Settings: ref FAERS

CCOc1cc2ncc(C#N)c(Nc3ccc(OCc4ccccn4)c(Cl)c3)c2cc1NC(=O)/C=C/CN(C)C [neratinib]
Intra-abdominal fluid collection, % of Cases: 0.15% | Intracranial artery dissection, % of Cases: 0.075% | Irritability, % of Cases: 0.15% | Ischaemic stroke, % of Cases: 0.075% | Joint injury, % of Cases: 0.075% | Joint stiffness, % of Cases: 0.15% | Joint swelling, % of Cases: 0.225% | Kidney infection, % of Cases: 0.075% | Klebsiella infection, % of Cases: 0.075% | Labelled drug-drug interaction medication error, % of Cases: 0.15% | Laboratory test abnormal, % of Cases: 0.15% | Large intestinal haemorrhage, % of Cases: 0.075% | Large intestinal obstruction, % of Cases: 0.075% | Lethargy, % of Cases: 0.45% | Ligament sprain, % of Cases: 0.15% | Lip swelling, % of Cases: 0.3% | Liver disorder, % of Cases: 0.15% | Liver function test increased, % of Cases: 0.45% | Liver injury, % of Cases: 0.225% | Localised infection, % of Cases: 0.075% | Loss of consciousness, % of Cases: 0.3% | Lower limb fracture, % of Cases: 0.075% | Lower respiratory tract infection, % of Cases: 0.075% | Lung cancer metastatic, % of Cases: 0.075% | Lung disorder, % of Cases: 0.15% | Lung neoplasm malignant, % of Cases: 0.375% | Lymph node haemorrhage, % of Cases: 0.075% | Lymphocyte count decreased, % of Cases: 0.075% | Lymphoedema, % of Cases: 0.15% | Magnetic resonance imaging abnormal, % of Cases: 0.075% | Magnetic resonance imaging head abnormal, % of Cases: 0.075% | Malaise, % of Cases: 1.5% | Malignant ascites, % of Cases: 0.075% | Malignant neoplasm of unknown primary site, % of Cases: 0.075% | Malignant neoplasm progression, % of Cases: 0.45% | Malignant pleural effusion, % of Cases: 0.075% | Malnutrition, % of Cases: 0.15% | Mass, % of Cases: 0.15% | Mastectomy, % of Cases: 0.225% | Medical procedure, % of Cases: 0.075% | Memory impairment, % of Cases: 0.45% | Menopausal symptoms, % of Cases: 0.075% | Menstruation delayed, % of Cases: 0.075% | Mental impairment, % of Cases: 0.075% | Mesenteric artery stenosis, % of Cases: 0.075% | Metastases to abdominal cavity, % of Cases: 0.075% | Metastases to bone, % of Cases: 0.375% | Metastases to central nervous system, % of Cases: 1.6% | Metastases to liver, % of Cases: 0.3% | Metastases to lung, % of Cases: 0.3% | Metastases to lymph nodes, % of Cases: 0.075% | Metastases to meninges, % of Cases: 0.075% | Metastases to peritoneum, % of Cases: 0.075% | Metastases to spine, % of Cases: 0.075% | Metastatic neoplasm, % of Cases: 0.15% | Microcytic anaemia, % of Cases: 0.075% | Micturition urgency, % of Cases: 0.075% | Middle ear effusion, % of Cases: 0.075% | Migraine, % of Cases: 0.375% | Monocyte count increased, % of Cases: 0.075% | Monoplegia, % of Cases: 0.075% | Mood swings, % of Cases: 0.075% | Mouth haemorrhage, % of Cases: 0.075% | Mouth swelling, % of Cases: 0.075% | Mouth ulceration, % of Cases: 0.15% | Movement disorder, % of Cases: 0.075% | Muscle spasms, % of Cases: 4.2% | Muscle twitching, % of Cases: 0.15% | Muscular weakness, % of Cases: 0.375% | Musculoskeletal chest pain, % of Cases: 0.15% | Musculoskeletal stiffness, % of Cases: 0.3% | Myalgia, % of Cases: 0.9% | Myelosuppression, % of Cases: 0.075% | Myocardial infarction, % of Cases: 0.075% | Myopia, % of Cases: 0.075% | Nail discolouration, % of Cases: 0.225% | Nail disorder, % of Cases: 0.375% | Nail growth abnormal, % of Cases: 0.075% | Nasal congestion, % of Cases: 0.45% | Nasal dryness, % of Cases: 0.3% | Nasal ulcer, % of Cases: 0.075% | Nasopharyngitis, % of Cases: 1.4% | Nausea, % of Cases: 29.7% | Neck pain, % of Cases: 0.15% | Negative thoughts, % of Cases: 0.15% | Neoplasm malignant, % of Cases: 0.075% | Neoplasm progression, % of Cases: 0.45% | Nephrolithiasis, % of Cases: 0.15% | Nervous system disorder, % of Cases: 0.15% | Nervousness, % of Cases: 0.075% | Neuralgia, % of Cases: 0.075% | Neuropathy peripheral, % of Cases: 1.1% | Neutropenia, % of Cases: 0.375% | Neutrophil count increased, % of Cases: 0.075% | Night sweats, % of Cases: 0.15% | Nightmare, % of Cases: 0.075% | Ocular hyperaemia, % of Cases: 0.15% | Oedema peripheral, % of Cases: 0.075% | Oesophageal pain, % of Cases: 0.075% | Off label use, % of Cases: 11.6% | Onychalgia, % of Cases: 0.075% | Onychoclasis, % of Cases: 0.8% | Onycholysis, % of Cases: 0.15% | Onychomycosis, % of Cases: 0.075% | Oral discomfort, % of Cases: 0.3% | Oral herpes, % of Cases: 0.075% | Oral mucosal blistering, % of Cases: 0.225% | Oral pain, % of Cases: 0.3% | Oropharyngeal pain, % of Cases: 1.1% | Orthostatic hypotension, % of Cases: 0.075% | Osteoarthritis, % of Cases: 0.15% | Osteonecrosis of jaw, % of Cases: 0.075% | Oxygen saturation decreased, % of Cases: 0.075% | Oxygen saturation increased, % of Cases: 0.075% | PIK3CA-activated mutation, % of Cases: 0.075% | Pain in extremity, % of Cases: 0.9% | Pain, % of Cases: 1.4% | Palmar-plantar erythrodysaesthesia syndrome, % of Cases: 0.3% | Palpitations, % of Cases: 0.15% | Pancreatic carcinoma, % of Cases: 0.075% | Pancreatic mass, % of Cases: 0.075% | Pancreatitis acute, % of Cases: 0.225% | Pancreatitis, % of Cases: 0.5% | Panic attack, % of Cases: 0.075% | Papilloedema, % of Cases: 0.075% | Papule, % of Cases: 0.075% | Paraesthesia oral, % of Cases: 0.075% | Paraesthesia, % of Cases: 0.45% | Paranasal sinus hypersecretion, % of Cases: 0.075% | Paranasal sinus hyposecretion, % of Cases: 0.075% | Paronychia, % of Cases: 0.15% | Pericardial effusion, % of Cases: 0.075% | Periorbital swelling, % of Cases: 0.075% | Peripheral swelling, % of Cases: 0.75% | Pharyngitis, % of Cases: 0.075% | Photopsia, % of Cases: 0.075% | Photosensitivity reaction, % of Cases: 0.075% | Physical deconditioning, % of Cases: 0.075% | Physical disability, % of Cases: 0.075% | Platelet count decreased, % of Cases: 0.225% | Platelet count increased, % of Cases: 0.075% | Pleural effusion, % of Cases: 0.225% | Pneumonia, % of Cases: 1.1% | Pneumonitis, % of Cases: 0.075% | Pollakiuria, % of Cases: 0.375% | Poor quality sleep, % of Cases: 0.075% | Post procedural bile leak, % of Cases: 0.075% | Post procedural infection, % of Cases: 0.075% | Post procedural swelling, % of Cases: 0.075% | Postoperative wound infection, % of Cases: 0.15% | Prescribed overdose, % of Cases: 0.075% | Prescribed underdose, % of Cases: 1.3% | Presyncope, % of Cases: 0.075% | Procedural pain, % of Cases: 0.075% | Proctalgia, % of Cases: 0.075% | Product administered to patient of inappropriate age, % of Cases: 0.075% | Product administration error, % of Cases: 0.9% | Product dose omission in error, % of Cases: 0.075% | Product dose omission issue, % of Cases: 7.8% | Product identification number issue, % of Cases: 0.075% | Product name confusion, % of Cases: 0.075% | Product packaging quantity issue, % of Cases: 0.075% | Product physical issue, % of Cases: 0.15% | Product prescribing error, % of Cases: 0.075% | Product use in unapproved indication, % of Cases: 0.15% | Product use issue, % of Cases: 0.15% | Productive cough, % of Cases: 0.225% | Prosthesis implantation, % of Cases: 0.075% | Pruritus, % of Cases: 1.2% | Pulmonary embolism, % of Cases: 0.075% | Pulmonary hypertension, % of Cases: 0.075% | Pulmonary oedema, % of Cases: 0.15% | Pulmonary pain, % of Cases: 0.075%
